Columns and labels:
[1] = biological target: Microtubule-associated serine/threonine-protein kinase 1 (Homo sapiens) (UniProt Q9Y2H9); conditions: Compound concentration 1000.0 nM
[2] = biological target: Tyrosine-protein kinase TXK (Homo sapiens) (UniProt P42681); conditions: Compound concentration 1000.0 nM
[3] = biological target: Rhodopsin kinase GRK7 (Homo sapiens) (UniProt Q8WTQ7); conditions: Compound concentration 1000.0 nM
[4] = biological target: LIM domain kinase 2 (Homo sapiens) (UniProt P53671); conditions: Compound concentration 1000.0 nM
[5] = tested on: Tyrosine-protein kinase ABL1 (Homo sapiens), P00519 [E255K]; conditions: Compound concentration 1000.0 nM
[6] = tested on: Receptor-type tyrosine-protein kinase FLT3 (Homo sapiens), P36888 [D835Y]; conditions: Compound concentration 1000.0 nM
[7] = biological target: BDNF/NT-3 growth factors receptor (Homo sapiens) (UniProt Q16620); conditions: Compound concentration 1000.0 nM
[8] = biological target: Calcium/calmodulin-dependent protein kinase type 1 (Homo sapiens) (UniProt Q14012); conditions: Compound concentration 1000.0 nM
[9] = tested on: Proto-oncogene tyrosine-protein kinase receptor Ret (Homo sapiens), P07949 [M918T]; conditions: Compound concentration 1000.0 nM
[10] = biological target: Homeodomain-interacting protein kinase 1 (Homo sapiens) (UniProt Q86Z02); conditions: Compound concentration 1000.0 nM
[11] = biological target: Tyrosine-protein kinase Yes (Homo sapiens) (UniProt P07947); conditions: Compound concentration 1000.0 nM
Chain of Tyrosine-protein kinase Yes (Homo sapiens) (P07947 2-543 limits assumed): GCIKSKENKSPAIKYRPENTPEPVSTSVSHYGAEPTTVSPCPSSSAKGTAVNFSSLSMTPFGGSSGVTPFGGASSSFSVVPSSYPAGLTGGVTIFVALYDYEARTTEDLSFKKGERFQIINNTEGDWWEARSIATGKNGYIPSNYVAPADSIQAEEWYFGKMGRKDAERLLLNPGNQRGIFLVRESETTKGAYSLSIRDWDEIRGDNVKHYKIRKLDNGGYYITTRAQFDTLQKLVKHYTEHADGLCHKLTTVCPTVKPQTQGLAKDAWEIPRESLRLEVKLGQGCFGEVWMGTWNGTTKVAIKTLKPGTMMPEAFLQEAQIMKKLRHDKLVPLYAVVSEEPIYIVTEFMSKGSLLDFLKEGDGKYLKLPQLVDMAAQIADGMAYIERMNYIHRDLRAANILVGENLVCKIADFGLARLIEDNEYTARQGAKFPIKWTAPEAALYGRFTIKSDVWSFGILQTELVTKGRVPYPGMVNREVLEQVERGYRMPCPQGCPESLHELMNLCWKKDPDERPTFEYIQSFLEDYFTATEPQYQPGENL

[12] = biological target: Mitogen-activated protein kinase kinase kinase kinase 5 (Homo sapiens) (UniProt Q9Y4K4); conditions: Compound concentration 1000.0 nM
[13] = biological target: Serine/threonine-protein kinase TNNI3K (Homo sapiens) (UniProt Q59H18); conditions: Compound concentration 1000.0 nM
Chain of Serine/threonine-protein kinase TNNI3K (Homo sapiens) (Q59H18 whole entry): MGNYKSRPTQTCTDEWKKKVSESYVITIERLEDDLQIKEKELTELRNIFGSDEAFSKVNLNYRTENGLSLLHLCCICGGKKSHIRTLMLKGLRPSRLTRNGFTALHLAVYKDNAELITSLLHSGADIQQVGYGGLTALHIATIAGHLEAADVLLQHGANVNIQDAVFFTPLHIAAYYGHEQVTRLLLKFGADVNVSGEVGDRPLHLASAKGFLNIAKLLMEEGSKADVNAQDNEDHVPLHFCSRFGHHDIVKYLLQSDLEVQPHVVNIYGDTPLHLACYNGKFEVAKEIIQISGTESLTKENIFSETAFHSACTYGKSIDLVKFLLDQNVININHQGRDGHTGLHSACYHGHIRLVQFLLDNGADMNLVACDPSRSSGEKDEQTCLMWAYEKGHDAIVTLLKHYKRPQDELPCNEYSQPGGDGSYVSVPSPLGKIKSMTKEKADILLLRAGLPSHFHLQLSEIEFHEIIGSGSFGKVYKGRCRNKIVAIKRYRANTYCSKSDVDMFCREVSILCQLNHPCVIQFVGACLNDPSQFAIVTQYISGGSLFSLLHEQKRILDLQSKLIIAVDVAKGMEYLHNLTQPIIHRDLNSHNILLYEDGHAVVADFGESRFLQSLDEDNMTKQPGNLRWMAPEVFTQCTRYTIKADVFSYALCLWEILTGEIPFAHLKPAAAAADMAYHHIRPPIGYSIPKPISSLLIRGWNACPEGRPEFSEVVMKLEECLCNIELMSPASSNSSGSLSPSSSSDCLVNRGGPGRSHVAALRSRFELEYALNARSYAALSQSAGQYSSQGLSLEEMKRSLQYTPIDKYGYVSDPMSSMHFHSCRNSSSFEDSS

[14] = biological target: SNF-related serine/threonine-protein kinase (Homo sapiens) (UniProt Q9NRH2); conditions: Compound concentration 1000.0 nM
[15] = biological target: D(3) dopamine receptor (Homo sapiens) (UniProt P35462); conditions: Compound concentration 10.0 uM
[16] = biological target: Dual specificity protein kinase CLK2 (Homo sapiens) (UniProt P49760); conditions: Compound concentration 1000.0 nM
[17] = biological target: Calcium/calmodulin-dependent protein kinase type II subunit alpha (Homo sapiens) (UniProt Q9UQM7); conditions: Compound concentration 1000.0 nM
[18] = biological target: Serine/threonine-protein kinase Nek10 (Homo sapiens) (UniProt Q6ZWH5); conditions: Compound concentration 1000.0 nM
[19] = biological target: Eukaryotic translation initiation factor 2-alpha kinase 1 (Homo sapiens) (UniProt Q9BQI3); conditions: Compound concentration 1000.0 nM
[20] = biological target: Calcium/calmodulin-dependent protein kinase type 1D (Homo sapiens) (UniProt Q8IU85); conditions: Compound concentration 1000.0 nM
[21] = biological target: Tyrosine-protein kinase ITK/TSK (Homo sapiens) (UniProt Q08881); conditions: Compound concentration 1000.0 nM
[22] = tested on: Tyrosine-protein kinase ABL1 (Homo sapiens), P00519 [F317I]; conditions: Compound concentration 1000.0 nM
[23] = tested on: Mast/stem cell growth factor receptor Kit (Homo sapiens), P10721 [D816H]; conditions: Compound concentration 1000.0 nM
[24] = biological target: Phosphatidylinositol 4-phosphate 3-kinase C2 domain-containing subunit beta (Homo sapiens) (UniProt O00750); conditions: Compound concentration 1000.0 nM
[25] = biological target: Serine/threonine-protein kinase Chk1 (Homo sapiens) (UniProt O14757); conditions: Compound concentration 1000.0 nM
[26] = biological target: Vascular endothelial growth factor receptor 2 (Homo sapiens) (UniProt P35968); conditions: Compound concentration 1000.0 nM
[27] = biological target: Peripheral plasma membrane protein CASK (Homo sapiens) (UniProt O14936); conditions: Compound concentration 1000.0 nM
[28] = biological target: Serine/threonine-protein kinase WNK1 (Homo sapiens) (UniProt Q9H4A3); conditions: Compound concentration 1000.0 nM
[29] = biological target: Serine/threonine-protein kinase 32C (Homo sapiens) (UniProt Q86UX6); conditions: Compound concentration 1000.0 nM
[30] = biological target: Cyclin-dependent kinase 3 (Homo sapiens) (UniProt Q00526); conditions: Compound concentration 1000.0 nM
[31] = biological target: Mitogen-activated protein kinase kinase kinase 14 (Homo sapiens) (UniProt Q99558); conditions: Compound concentration 1000.0 nM
[32] = biological target: Receptor tyrosine-protein kinase erbB-3 (Homo sapiens) (UniProt P21860); conditions: Compound concentration 1000.0 nM
[33] = biological target: Serine/threonine-protein kinase WNK3 (Homo sapiens) (UniProt Q9BYP7); conditions: Compound concentration 1000.0 nM
Chain of Serine/threonine-protein kinase WNK3 (Homo sapiens) (Q9BYP7 whole entry): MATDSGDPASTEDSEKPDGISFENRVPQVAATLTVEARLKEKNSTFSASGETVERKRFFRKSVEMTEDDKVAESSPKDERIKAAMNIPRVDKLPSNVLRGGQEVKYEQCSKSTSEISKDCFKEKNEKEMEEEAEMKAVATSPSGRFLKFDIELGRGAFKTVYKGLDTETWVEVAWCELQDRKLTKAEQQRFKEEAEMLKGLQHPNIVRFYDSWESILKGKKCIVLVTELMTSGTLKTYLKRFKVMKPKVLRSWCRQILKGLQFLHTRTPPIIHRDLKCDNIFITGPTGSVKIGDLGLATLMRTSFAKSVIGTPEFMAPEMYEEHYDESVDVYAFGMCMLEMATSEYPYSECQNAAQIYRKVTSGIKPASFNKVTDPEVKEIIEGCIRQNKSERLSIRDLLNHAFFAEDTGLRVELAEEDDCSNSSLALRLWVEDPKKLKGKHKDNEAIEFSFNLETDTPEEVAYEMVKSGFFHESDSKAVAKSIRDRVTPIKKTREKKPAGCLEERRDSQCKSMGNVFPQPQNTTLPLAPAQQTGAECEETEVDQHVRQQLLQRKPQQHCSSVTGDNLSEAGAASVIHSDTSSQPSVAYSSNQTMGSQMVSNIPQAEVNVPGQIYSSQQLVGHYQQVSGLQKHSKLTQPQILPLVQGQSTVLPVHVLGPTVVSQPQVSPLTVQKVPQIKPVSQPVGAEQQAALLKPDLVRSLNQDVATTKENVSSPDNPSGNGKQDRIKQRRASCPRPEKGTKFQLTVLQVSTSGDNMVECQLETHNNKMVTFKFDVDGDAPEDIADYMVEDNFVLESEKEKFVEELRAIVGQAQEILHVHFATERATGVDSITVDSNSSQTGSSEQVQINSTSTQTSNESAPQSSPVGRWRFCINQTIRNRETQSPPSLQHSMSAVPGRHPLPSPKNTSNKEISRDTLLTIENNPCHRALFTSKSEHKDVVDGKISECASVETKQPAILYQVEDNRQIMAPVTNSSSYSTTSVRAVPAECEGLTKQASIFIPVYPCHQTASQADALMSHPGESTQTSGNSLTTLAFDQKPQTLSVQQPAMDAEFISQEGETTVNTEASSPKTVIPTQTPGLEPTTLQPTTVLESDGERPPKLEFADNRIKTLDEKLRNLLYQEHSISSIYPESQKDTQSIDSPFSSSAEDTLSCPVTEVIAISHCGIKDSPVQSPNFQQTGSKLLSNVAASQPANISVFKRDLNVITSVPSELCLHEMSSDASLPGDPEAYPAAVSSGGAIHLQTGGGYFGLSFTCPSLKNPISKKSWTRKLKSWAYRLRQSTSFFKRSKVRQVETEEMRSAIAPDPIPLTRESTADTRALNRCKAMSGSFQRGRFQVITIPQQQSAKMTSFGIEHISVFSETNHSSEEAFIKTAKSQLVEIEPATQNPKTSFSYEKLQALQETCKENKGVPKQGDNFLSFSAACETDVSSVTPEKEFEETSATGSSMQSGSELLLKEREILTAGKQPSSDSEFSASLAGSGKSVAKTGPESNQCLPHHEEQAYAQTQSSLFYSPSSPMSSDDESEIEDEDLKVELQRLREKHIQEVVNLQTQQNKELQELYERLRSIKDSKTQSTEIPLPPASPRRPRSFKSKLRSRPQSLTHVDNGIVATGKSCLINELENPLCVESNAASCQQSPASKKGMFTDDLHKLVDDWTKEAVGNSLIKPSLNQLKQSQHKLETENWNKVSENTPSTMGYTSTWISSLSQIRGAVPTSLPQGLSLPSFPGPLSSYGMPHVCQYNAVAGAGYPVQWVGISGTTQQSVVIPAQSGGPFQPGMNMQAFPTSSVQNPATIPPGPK

[34] = biological target: Mast/stem cell growth factor receptor Kit (Homo sapiens) (UniProt P10721); conditions: Compound concentration 1000.0 nM
Chain of Mast/stem cell growth factor receptor Kit (Homo sapiens) (P10721 whole entry): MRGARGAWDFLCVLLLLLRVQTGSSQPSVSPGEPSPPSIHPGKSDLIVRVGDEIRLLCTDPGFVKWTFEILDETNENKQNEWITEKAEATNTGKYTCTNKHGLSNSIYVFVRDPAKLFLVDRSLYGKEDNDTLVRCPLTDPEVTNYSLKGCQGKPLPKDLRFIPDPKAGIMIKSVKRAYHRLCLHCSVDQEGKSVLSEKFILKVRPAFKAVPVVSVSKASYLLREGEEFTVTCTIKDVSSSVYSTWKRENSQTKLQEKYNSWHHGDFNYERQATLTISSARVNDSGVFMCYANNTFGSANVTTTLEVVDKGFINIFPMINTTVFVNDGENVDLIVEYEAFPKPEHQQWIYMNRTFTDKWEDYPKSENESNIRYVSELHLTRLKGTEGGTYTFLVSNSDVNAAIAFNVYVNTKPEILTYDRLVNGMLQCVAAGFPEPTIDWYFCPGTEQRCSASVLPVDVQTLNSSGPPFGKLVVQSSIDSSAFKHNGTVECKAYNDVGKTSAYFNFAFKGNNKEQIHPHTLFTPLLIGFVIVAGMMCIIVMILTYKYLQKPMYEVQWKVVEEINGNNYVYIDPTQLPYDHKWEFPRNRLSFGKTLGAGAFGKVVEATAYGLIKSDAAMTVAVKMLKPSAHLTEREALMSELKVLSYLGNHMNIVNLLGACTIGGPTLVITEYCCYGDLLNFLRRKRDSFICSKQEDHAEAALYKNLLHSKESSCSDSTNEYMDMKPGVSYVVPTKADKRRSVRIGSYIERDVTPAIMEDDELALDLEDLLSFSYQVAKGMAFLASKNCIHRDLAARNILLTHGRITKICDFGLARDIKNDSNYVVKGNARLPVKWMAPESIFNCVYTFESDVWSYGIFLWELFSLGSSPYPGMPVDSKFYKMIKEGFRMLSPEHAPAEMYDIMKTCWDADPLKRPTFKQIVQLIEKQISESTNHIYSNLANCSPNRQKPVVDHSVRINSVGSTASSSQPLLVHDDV

[35] = biological target: Serine/threonine-protein kinase Nek2 (Homo sapiens) (UniProt P51955); conditions: Compound concentration 1000.0 nM
[36] = biological target: Mitogen-activated protein kinase kinase kinase 1 (Homo sapiens) (UniProt Q13233); conditions: Compound concentration 1000.0 nM
[37] = biological target: Serine/threonine-protein kinase MARK2 (Homo sapiens) (UniProt Q7KZI7); conditions: Compound concentration 1000.0 nM
[38] = biological target: Histamine H1 receptor (Homo sapiens) (UniProt P35367); conditions: Compound concentration 10.0 uM
[39] = biological target: Maternal embryonic leucine zipper kinase (Homo sapiens) (UniProt Q14680); conditions: Compound concentration 1000.0 nM
[40] = tested on: Mast/stem cell growth factor receptor Kit (Homo sapiens), P10721 [V559D]; conditions: Compound concentration 1000.0 nM
[41] = biological target: Kappa-type opioid receptor (Homo sapiens, UniProt P41145); assay: GPCRScan assay: inhibition of KOR; parameters: radioligand conc. used [nm] 0.6 – 1.2, parental cells stable HEK
[42] = biological target: Non-receptor tyrosine-protein kinase TYK2 (Homo sapiens) (UniProt P29597); conditions: Compound concentration 1000.0 nM
[43] = biological target: Phosphatidylinositol 3-kinase catalytic subunit type 3 (Homo sapiens) (UniProt Q8NEB9); conditions: Compound concentration 1000.0 nM
[44] = tested on: Mast/stem cell growth factor receptor Kit (Homo sapiens), P10721 [V559D,V654A]; conditions: Compound concentration 1000.0 nM
Chain of Mast/stem cell growth factor receptor Kit (Homo sapiens), P10721 [V559D,V654A] (P10721 whole entry V559D/V654A): as the sequence (P10721 whole entry) above, with V559D, V654A counted along it

[45] = biological target: G protein-coupled receptor kinase 3 (Homo sapiens) (UniProt P35626); conditions: Compound concentration 1000.0 nM

O=C(Nc1ccc(Oc2ccc(F)cc2)cc1)N1CCc2ncccc2[C@H]1c1ccc(F)cc1 [BAY-897] showed a residual activity [1] of 79%, a residual activity [2] of 100% and a residual activity [3] of 100%. The residual activity [4] was 93%, the residual activity [5] was 100% and the residual activity [6] was 99%. It also gave a residual activity [7] of 84%, a residual activity [8] of 70% and a residual activity [9] of 100%. It also gave a residual activity [10] of 96%, a residual activity [11] of 100% and a residual activity [12] of 91%. For the same molecule, the residual activity [13] was 100%, the residual activity [14] was 90% and the inhibition [15] was -2.66%. For the same molecule, the residual activity [16] was 95%, the residual activity [17] was 88% and the residual activity [18] was 100%. The residual activity [19] was 100%, the residual activity [20] was 100% and the residual activity [21] was 96%. For the same molecule, the residual activity [22] was 100%, the residual activity [23] was 89% and the residual activity [24] was 96%. The residual activity [25] was 100%, the residual activity [26] was 100% and the residual activity [27] was 100%. The residual activity [28] was 96%, the residual activity [29] was 75% and the residual activity [30] was 93%. It also gave a residual activity [31] of 61%, a residual activity [32] of 100% and a residual activity [33] of 94%. It also gave a residual activity [34] of 91%, a residual activity [35] of 93% and a residual activity [36] of 87%. The residual activity [37] was 82%, the inhibition [38] was 15.9% and the residual activity [39] was 78%. The residual activity [40] was 100%, the Ki [41] was 3.13 µM and the residual activity [42] was 100%. It also gave a residual activity [43] of 92%, a residual activity [44] of 90% and a residual activity [45] of 95%.

O=C(Nc1cnc(Oc2ccc(F)cc2)nc1)N1CCc2ncccc2[C@@H]1c1ccc(F)cc1 [BAY-899] was tested, and the residual activity [1] was 96%, the residual activity [2] was 87% and the residual activity [3] was 100%. The residual activity [4] was 97%, the residual activity [5] was 100% and the residual activity [6] was 100%. It also gave a residual activity [7] of 100%, a residual activity [8] of 73% and a residual activity [9] of 95%. It also gave a residual activity [10] of 70%, a residual activity [11] of 98% and a residual activity [12] of 77%. It also gave a residual activity [13] of 100%, a residual activity [14] of 90% and an inhibition [15] of -4.36%. It also gave a residual activity [16] of 100%, a residual activity [17] of 92% and a residual activity [18] of 100%. It also gave a residual activity [19] of 100%, a residual activity [20] of 100% and a residual activity [21] of 90%. It also gave a residual activity [22] of 100%, a residual activity [23] of 96% and a residual activity [24] of 95%. For the same molecule, the residual activity [25] was 84%, the residual activity [26] was 88% and the residual activity [27] was 94%. It also gave a residual activity [28] of 100%, a residual activity [29] of 96% and a residual activity [30] of 89%. It also gave a residual activity [31] of 100%, a residual activity [32] of 100% and a residual activity [33] of 93%. The residual activity [34] was 81%, the residual activity [35] was 92% and the residual activity [36] was 89%. It also gave a residual activity [37] of 90%, an inhibition [38] of 5.89% and a residual activity [39] of 66%. The residual activity [40] was 100%, the Ki [41] was 7.63 µM and the residual activity [42] was 100%. It also gave a residual activity [43] of 100%, a residual activity [44] of 84% and a residual activity [45] of 96%.
